According to patent publication US5972946A, “Acetamide derivative, process for preparing the same, and a pharmaceutical composition containing the same” (Dainippon Pharmaceutical Co., Ltd., priority 1995, dated 1999):

Legend:
[1] = test system: Bacillus subtilis; details: Pharmazie, 43, 537-538 (1988); cited from earlier work
[2] = Collagen-induced arthritis inhibitory test 2; type: in vivo, mouse (DBA/1j, female)
Method: Experiment 5: Collagen-induced arthritis inhibitory test 2
Collagen-induced arthritis inhibitory test was carried out according to Kakimoto, K. et al. (cf. above reference of Kakimoto, K. et al.) with slight modification. Type II collagen from bovine joints (product of the Collagen Research Center, Japan) was emulsified in complete Freund's adjuvant (product of DIFCO Lab., U.S.A.). Female mice of DBA/1j strain (product of Nippon Charles River, Japan) were immunized by injection at the base of the tail with 150 μg of the emulsified collagen. After twenty one days from the immunization, arthritis was induced by a booster immunization of 150 μg of the emulsified collagen prepared in the same manner as above at the base of the tail again. Test compounds were administered orally at a dose of 10 mg/kg on 5 consecutive days in a week for 8 weeks, beginning from the day before the immunization. Mice were monitored visually for arthritis once a week beginning from the day of the booster immunization. The severity of arthritis was estimated by the sum of the scores of all 4 paws.

[3] = target: peripheral (ω3) benzodiazepine (BZ) receptor (Rattus norvegicus, UniProt P16257); test: BZω3 (peripheral-type) benzodiazepine receptor binding assay
Method: Experiment 1: Central (ω1, ω2) and peripheral (ω3) benzodiazepine (BZ) receptor binding assays
BZω1 and BZω2 receptor binding assays were carried out according to the method of Stephens, D. N. et al. [cf.
Receptor membrane fractions for ω1, ω2 and ω3 were prepared from the cerebellum (ω1), spinal cord (ω1) or kidney (ω3) in 7-8 week old male rats of Wistar strain by the procedure described below.
After the cerebellum or spinal cord was homogenized with 20 volumes of ice-cold 50 mM Tris-citrate buffer (pH 7.1), the homogenate was centrifuged for 15 minutes at 40,000 g. The pellet obtained was washed 4 times by the same procedure, frozen and stored for 24 hours at -60° C. The resulting pellet, after being thawed, washed with the buffer and centrifuged, was suspended in the buffer I for the binding assay (50 mM Tris-HCl buffer containing 120 mM NaCl, 5 mM KCl, 2 mM CaCl2 and 1 mM MgCl2 ; pH 7.4) and the suspension thus obtained (containing 1 g wet tissue/40 ml) was used for the BZω1 and BZω2 receptor binding assays. On the other hand, the kidney was homogenized with 20 volumes of the ice-cold buffer II for the binding assay (50 mM Na--K phosphate buffer containing 100 mM NaCl; pH 7.4), filtered through 4 sheets of gauze, and centrifuged for 20 minutes at 40,000 g. The pellet obtained was suspended in the buffer II and the suspension (containing 1 g wet tissue/100 ml) was used for the binding assay as BZω3 receptor membrane source.
Flumazenil (final concentration: 0.3 nM for (ω1 and 1 nM for ω2) and flunitrazepam (final concentration: 10 μM) were used for the BZω1 or BZω2 receptor binding assays as the isotope-labeled and unlabeled ligands, respectively. For the BZω3 receptor binding assay, [^3 H] 4'-chlorodiazepam (7-chloro-1,3-dihydro-1-methyl-5-(4-chlorophenyl)-2H-1,4-benzodiazepin-2-one) (final concentration: 0.5 nM) and diazepam (final concentration: 100 μM) were used as the isotope-labeled and unlabeled ligands, respectively. Incubation was performed for 30 minutes at 37° C. in the BZω1 or BZω2 receptor binding assays, and for 150 minutes at 0° C. in the BZω3 receptor binding assay. The BZω1 or BZω2 receptor binding assays were carried out in the presence of bicuculline (final concentration: 100 μM).
The binding assay was performed by the following procedure. After adding each test compound at certain known concentrations, a [^3 H] ligand and the buffer I or II to each test tube, each assay was started by addition of membrane preparation (total volume of 1 ml). After incubation, the assay was terminated by filtration with suction through a Whatman GF/B glass fiber filter using a cell harvester (Brandel, USA). The filters were rapidly washed 3 times with 5 ml of ice-cold 50 mM Tris-HCl buffer (pH 7.7) for ω1 and ω2, or the buffer II forω3, and transferred to scintillation vials containing 10 ml liquid scintillation cocktail (ACS-II, Amersham, USA). After a few hours, retained radioactivity was counted by a liquid scintillation spectrometer. Specific binding of [^3 H] ligands was calculated as the difference between amounts of radioactivity bound in the presence and absence of excess unlabeled ligands.

[4] = Light and dark box test (anti-anxiety effect); type: in vivo, mouse (Std-ddY, male); details: Mus musculus, 0.5 h; oral, 30 min before test; mice; p<0.05 vs vehicle; read-out: Anti-anxiety effect MED (minimum effective dose)
Source text: Experiment 2: Light and dark box test (anti-anxiety effect)
Anti-anxiety effect of test compounds was examined in a box with light and dark compartments according to the method of Crawley, J. and Goodwin, F. K. [cf. Pharmacol. Biochem. Behav. 13, 167-170 (1980)] with slight modification.
Light and dark box test is a useful, simple and handy method for behaviorally and pharmacologically examining anti-anxiety effect of the drugs, by utilizing the habit of rodents such as mice and rats, etc. which prefer to stay in a dark place, and regarding as positive drug effect the increase of the relative stay of the animals in the light compartment which is an uncomfortable place for the animals.
Light and dark box test was carried out using the test box device (35×15×17 cm) which comprises: a light compartment (20×15×17 cm) consisting of transparent acrylic plates and highly illuminated by an incandescent lamp (1,700 lux); a dark compartment (15×15×17 cm) being made of black acrylic plates connected to the light compartment; and at the boundary of compartments, an opening (4.4×5 cm) in which mice can go through freely between two compartments.
Male mice of Std-ddY strain weighing 25-30 g were used in a group of 10. Each trial was started by placing a mouse in the center of the light compartment 30 minutes after oral administration of a test compound, and the time spent by the mouse in the light compartment during a 5 minute observation period was measured, and the rate of the stay of mice in the light compartment to the whole time spent in the experiment was calculated. The increasing rate of the relative stay of the test compound to that of the vehicle control group was yielded, based on the rate of the stay of mice in the light compartment.
The anti-anxiety effect of the test compound was represented by the minimum effectivetive dose (MED) at which the increasing rate of the relative stay was regarded statistically as significant (Williams-Wilcoxon's test, p<0.05).

[5] = known from literature; cited from earlier work

In the case of `CC(=O)c1c(C)nc(-c2ccccc2)nc1SCC(=O)Nc1ccc(Cl)cc1` [2-(5-acetyl-6-methyl-2-phenyl-4-pyrimidinylthio)-N-(4-chlorophenyl)acetamide], the “antibacterial activity against Bacillus subtilis” value [1] is given as “shows antibacterial activity against Bacillus subtilis”.
For `CCCN(CCC)C(=O)CNc1nc(-c2ccc(C(F)(F)F)cc2)nc(C)c1C` [Example 6, 2-[5,6-Dimethyl-2-(4-trifluoromethylphenyl)-4-pyrimidinylamino]-N,N-dipropylacetamide], the “onset of arthritis delayed until (days after the booster immunization)” value ([2]; 10 mg/kg oral, 5 consecutive days a week for 8 weeks) was 21 days, the “severity of arthritis versus control group” value ([2]; 10 mg/kg oral, 5 days a week, at least until day 34, last day of the experiment) was “much lower than the control group” and the “effect on collagen-induced arthritis inhibitory test (conclusion)” value ([2]; experiment 5, 10 mg/kg oral) was “potent effect”. For the same compound, the IC50 [3] was 230 pM and the minimal effective dose [4] was 0.3 mg/kg.
For `C[C@]12CC[C@@H](O)C[C@@H]1CC[C@@H]1[C@@H]2CC[C@]2(C)[C@@H](C(=O)CO)CC[C@@H]12` [THDOC, allotetrahydrodeoxycorticosterone], the “effect in isoniazid-induced clonic convulsion test (known drugs)” value (“effect … (known drugs)” below) [5] is listed as “positive effect”.
For `CC(=O)[C@H]1CC[C@H]2[C@@H]3CC[C@H]4C[C@H](O)CC[C@]4(C)[C@H]3CC[C@]12C` [allopregnanolone], the “effect … (known drugs)” value [5] is listed as “positive effect”.
For `CN1C(=O)CN=C(c2ccccc2)c2cc(Cl)ccc21` [diazepam], the “effect … (known drugs)” value [5] is listed as “positive effect”.
